Data reported in patent publication US8796224B2, “Methods for preparing purified lipopeptides” (priority 2000, dated 2014).
In brackets after ≈: the same amount, converted by molar mass.

Experiments:
susceptible strains = assay: Minimum inhibitory concentration (MIC) in in vitro experiments; type: cell-based, gram-positive organisms; conditions: against susceptible strains, compared with vancomycin, 'typically'
[1] = Hygroscopicity of the amorphous preparation; type: physicochemical; conditions: amorphous daptomycin preparation

Work on `CCCCCCCCCCC(=O)NC(Cc1c[nH]c2ccccc12)C(=O)NC(CC(N)=O)C(=O)NC(CC(=O)O)C(=O)NC1C(=O)NCC(=O)NC(CCCN)C(=O)NC(CC(=O)O)C(=O)NC(C)C(=O)NC(CC(=O)O)C(=O)NCC(=O)NC(CO)C(=O)NC(C(C)CC(=O)O)C(=O)NC(CC(=O)c2ccccc2N)C(=O)OC1C` (centres unmarked) [CB-131547] yielded a solubility (physchem; solubility in normal saline) of about 80 mg/mL (≈ 48.9 mM).

With `CCCCCCCCCC(=O)N[C@@H](Cc1c[nH]c2ccccc12)C(=O)N[C@H](CC(N)=O)C(=O)N[C@@H](CC(=O)O)C(=O)N[C@@H]1C(=O)NCC(=O)N[C@@H](CCCN)C(=O)N[C@@H](CC(=O)O)C(=O)N[C@H](C)C(=O)N[C@@H](CC(=O)O)C(=O)NCC(=O)N[C@H](CO)C(=O)N[C@@H]([C@H](C)CC(=O)O)C(=O)N[C@@H](CC(=O)c2ccccc2N)C(=O)O[C@@H]1C` [daptomycin] the “MIC value, fold lower than that of vancomycin” value (susceptible strains) was 4 fold, the hygroscopicity [1] was “hygroscopic” and the solubility (physchem; solubility in ethanol) was 2.8 mg/mL (≈ 1.73 mM). The solubility (physchem; solubility in water) was over 1000 mg/mL.
